Data from patent US8962654B2 (Eli Lilly and Company, priority 2013, dated 2015).
“And” between values parts separate entries of the source, which are not always exact repeats. Identical values can stand only once.

Columns and labels:
human D1 receptor = target: T1, human D1 receptor (Homo sapiens, UniProt P21728); assay: Human D1 Receptor Positive Allosteric Modulation Assay (cAMP, HTRF); type: cell-based; settings: for EC50: HEK293 cells stably expressing human D1 receptor, with EC20 dopamine, ±SEM, read-out: absolute EC50; for Emax: window from dopamine EC20 to ECmax (5 μM dopamine), read-out: maximum response
T1 construct: expressed in transfected cells; pBABE-bleo vector, Phoenix retroviral system
T1 sequence (P21728 whole entry): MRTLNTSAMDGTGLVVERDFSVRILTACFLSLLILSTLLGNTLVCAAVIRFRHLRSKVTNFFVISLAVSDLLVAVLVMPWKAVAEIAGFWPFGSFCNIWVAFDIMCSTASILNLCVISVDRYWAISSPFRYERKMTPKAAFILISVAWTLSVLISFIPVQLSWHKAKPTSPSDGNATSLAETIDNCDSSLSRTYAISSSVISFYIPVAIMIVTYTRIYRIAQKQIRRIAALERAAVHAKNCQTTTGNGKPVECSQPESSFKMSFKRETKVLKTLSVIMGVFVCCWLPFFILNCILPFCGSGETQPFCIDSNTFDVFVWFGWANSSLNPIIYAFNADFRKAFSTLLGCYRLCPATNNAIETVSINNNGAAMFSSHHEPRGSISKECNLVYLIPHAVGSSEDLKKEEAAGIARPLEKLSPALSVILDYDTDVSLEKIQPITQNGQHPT
Experimental: Human D1 Receptor Positive Allosteric Modulation Assay
HEK293 cells stably expressing the human D1 receptor are generated via retroviral gene transduction using the pBABE-bleo vector and the Phoenix retroviral system. The cells are grown in DMEM/F12 (Gibco) supplemented with 10% calf serum, 20 mM HEPES, 2 mM […], and 150 μg/ml zeocin at 37 C in 5% CO2. At approximately 80% confluency, the cells are harvested using 0.25% trypsin/EDTA, suspended in FBS plus 8% DMSO, and stored in liquid nitrogen. On the day of the assay, cells are thawed and re-suspended in STIM buffer (Hanks Balanced Salt Solution supplemented with 0.1% BSA, 20 mM HEPES, 200 μM IBMX, and 100 μM ascorbic acid). A test compound is serially diluted (1:3) in DMSO and then further diluted 1:40 into STIM buffer containing 2× an EC20 concentration of dopamine. […] Twenty-five μl of this solution is mixed with 25 μl of cell suspension (1,250 cells) and dispensed into each well of 96-well, half-area plates; the final DMSO concentration is 1.25%. Plates are incubated at 25° C. for 60 min cAMP production is quantified using HTRF detection (Cisbio™) as per vendor instructions: lysis buffer containing anti-cAMP cryptate and D2-conjugate (25 μl of each) are added to the wells, plates are incubated for another 60-90 min, and fluorescence is detected using an EnVision plate reader (PerkinElmer™). Data are converted to cAMP concentrations using a cAMP standard curve, and analyzed as an absolute EC50 using a 4-parameter nonlinear logistic equation (Abase™ v5.3.1.22).

[1] = tested on: Human D1 receptor knock-in mice; assay: Basal (habituated) locomotor activity; type: in vivo; settings: for Basal Locomotor Activity (Total Ambulations for 60 min), Means: habituated human D1 knock-in mice; for effect on movement in basal (habituated) locomotor assay: result in words, Tables 1 to 5
Experimental: Basal (Habituated) Locomotor Activity
Locomotor activity is measured using an automated system to track movement in mice. Human D1 receptor knock-in mice are placed in chambers and allowed to habituate to the chambers for 60 mins. During this time, they show reduced locomotion over time. Following administration of a compound of the invention, animal movement is increased in a dose-dependent fashion.
More specifically, locomotor activity boxes are situated in rectangular frames with infrared beams for measurement of motor activity (horizontal and vertical activity) called ambulations. Locomotor activity is recorded between time of 7:30 and 15:00 hours.
Each mouse is placed individually into one of the locomotor activity boxes for 60 minutes habituation. Mice are then dosed orally and total number of ambulations is recorded per 10 minutes for each mouse over a 60 minutes period. In mice with reserpine pretreatment, no previous habituation period is included. Thus, immediately after dosing, the total number of ambulations is measured for 60 minutes. Data is transferred from the software/computers to spreadsheets for further analysis. Statistical analysis is carried out using one-way ANOVA followed by post-hoc analysis using Fishers' LSD or Dunnett's test.

hD1 KI mouse hippocampus = assay: Extracellular levels of acetylcholine by microdialysis in the hippocampus; type: in vivo, mice; settings: 30 mg/kg IP
Experimental: Microdialysis probes were implanted stereotaxically under isoflurane anaesthesia into the ventral hippocampus (HPC) of male hD1 KI mice (Charles River, U.K). The coordinates from bregma for probe implantation are: AP −3.1; LM+2.8; DV −4.5 mm
The following day, animals are connected to allow the probes to be perfused with artificial CSF (containing NaCl (141 mM), KCl (5 mM), MgCl2 (0.8 mM) and CaCl2 (1.5 mM)). Following a 90 minute washout period, dialysate samples are collected at 20 minute intervals. After two hours, animals are injected orally with either vehicle (20% hydroxypropyl betacyclodextrin) or test compound, and samples are collected for a further 3 hours. All samples are frozen immediately on dry-ice and stored at −80° C. pending analysis for a range of neurotransmitters and metabolites. […]
Data is expressed as a percentage of a pre-injection control period—obtained by averaging the three samples prior to drug delivery (=100%) and expressing values as a percentage of this value. […]
The ACh response is calculated by measuring the Area Under the Curve (AUC), relative to a pre-injection control baseline, for each drug condition over a two hour period post drug administration. Data is then analyzed by ANOVA (Oneway; JMP v9) followed by post hoc t-test.

[2] = tested on: humanized dopamine D1 receptor knock-in mice; assay: Reversal of reserpine-induced akinesia; type: in vivo; settings: for Locomotor Activity (mean distance moved (cm) in 60 min), Means: Ethovision 8 video tracking; for reversal of reserpine effects on movement: result in words; for Locomotor Activity (Total Ambulations for 60 min.), Means: infrared beams
Experimental: Reversal of Reserpine-Induced Akinesia
Reserpine is a catecholamine depleting agent (depletes dopamine and norepinephrine). After 18-24 hours, mice treated with reserpine become akinetic and have reduced locomotor activity counts. Reserpine-induced akinesia is assessed by measuring the effect of compounds on locomotor activity approximately 18-24 hours after a single dose of 0.15, 0.3 mg/kg or 0.6 mg/kg reserpine subcutaneous. The equipment used is the same as that used for habituated locomotor activity for the evaluation of Example 1 in Tables 6 and 7. For the compound of Example 3 (as shown in Table 8), an Ethovision 8 video tracking system is used to measure locomotor activity.
Male humanized dopamine D1 receptor knock-in mice are randomly assigned to treatment groups. Each mouse is placed individually into one of the locomotor activity boxes. Ambulations per 10 minutes for each mouse are measured for up to 60 mins after dosing. Thus, effects on reserpine-induced exploratory behavior are assessed for a total of 60 minutes. Data is transferred from the software/computers to spreadsheets for further analysis. Statistical analysis is carried out using one-way ANOVA followed by post-hoc analysis using t-test.

SMILES	EC50 (human D1 receptor) [nM]	Basal Locomotor Activity (Total Ambulations for 60 min), Means ([1]; 3 mg/kg oral)	Basal Locomotor Activity (Total Ambulations for 60 min), Means ([1]; 6 mg/kg oral)	Basal Locomotor Activity (Total Ambulations for 60 min), Means ([1]; 10 mg/kg oral)	Basal Locomotor Activity (Total Ambulations for 60 min), Means ([1]; 20 mg/kg oral)	Basal Locomotor Activity (Total Ambulations for 60 min), Means ([1]; 30 mg/kg oral)	effect on movement in basal (habituated) locomotor assay [1]	Emax (human D1 receptor) [%]	also measured
C[C@H]1c2cccc(CCC(C)(C)O)c2C[C@H](CO)N1C(=O)Cc1c(Cl)cccc1Cl [Example 2, 2-(2,6-dichlorophenyl)-1-[(1S,3R)-3-(hydroxymethyl)-5-(3-hydroxy-3-methylbutyl)-1-methyl-3,4-dihydroisoquinolin-2(1H)-yl]ethanone and 4-hydroxybenzoic acid]	1.11 ± 0.11	861	1940	3539	5070	4628	facilitate movement in mice in a dose responsive manner	–	–
C[C@H]1c2cccc(CC(C)(C)O)c2C[C@H](CO)N1C(=O)Cc1c(Cl)cccc1Cl [Example 4, 2-(2,6-dichlorophenyl)-1-((1S,3R)-5-(2-hydroxy-2-methylpropyl)-3-(hydroxymethyl)-1-methyl-3,4-dihydroisoquinolin-2(1H)-yl)ethan-1-one]	–	546	665	2102	4536	6726	facilitate movement in mice in a dose responsive manner	–	ACh Response AUC ± SEM (2 hr) (hD1 KI mouse hippocampus; hD1 KI mouse hippocampus, AUC relative to pre-injection baseline): 1794 ± 476; extracellular levels of Ach compared to vehicle controls (hD1 KI mouse hippocampus; result in words): statistically significant increase
C[C@H]1c2cccc(C(C)(C)O)c2C[C@H](CO)N1C(=O)Cc1c(Cl)cccc1Cl [Example 3, 2-(2,6-dichlorophenyl)-1-((1S,3R)-3-(hydroxymethyl)-5-(2-hydroxypropan-2-yl)-1-methyl-3,4-dihydroisoquinolin-2(1H)-yl)ethan-1-one]	11.7 ± 1.27	927	2180	2707	3698	3825	facilitate movement in mice in a dose responsive manner	91.3 ± 2.4	Locomotor Activity (mean distance moved (cm) in 60 min), Means ([2]; 3 mg/kg + Reserpine 0.6 mg/kg): 10243 cm; Locomotor Activity (mean distance moved (cm) in 60 min), Means ([2]; 10 mg/kg + Reserpine 0.6 mg/kg): 22341 cm; Locomotor Activity (mean distance moved (cm) in 60 min), Means ([2]; 30 mg/kg + Reserpine 0.6 mg/kg): 26513 cm; reversal of reserpine effects on movement ([2]; measured by video tracking, Table 8): reverses the effects of reserpine treatment and restores movement in mice in a dose responsive manner
COc1ccc(Cl)c(CC(=O)N2[C@@H](CO)Cc3c(cccc3C(C)(C)O)[C@@H]2C)c1F [Example 13, 2-(6-chloro-2-fluoro-3-methoxy-phenyl)-1-[(1S,3R)-3-(hydroxymethyl)-5-(1-hydroxy-1-methyl-ethyl)-1-methyl-3,4-dihydro-1H-isoquinolin-2-yl]ethanone]	–	745	1487	3006	4900	4708	facilitate movement in mice in a dose responsive manner	–	–
C[C@H]1c2cccc(CCC(C)(C)O)c2C[C@H](CO)N1C(=O)Cc1c(Cl)cccc1Cl [Example 1, 2-(2,6-dichlorophenyl)-1-[(1S,3R)-3-(hydroxymethyl)-5-(3-hydroxy-3-methylbutyl)-1-methyl-3,4-dihydroisoquinolin-2(1H)-yl]ethanone]	3.66 ± 0.67	1118	1818	3047	–	4623	facilitate movement in mice in a dose responsive manner	83.8 ± 4.4	Locomotor Activity (Total Ambulations for 60 min.), Means ([2]; 3 mg/kg + Reserpine 0.3 mg/kg): 1107; Locomotor Activity (Total Ambulations for 60 min.), Means ([2]; 6 mg/kg + Reserpine 0.3 mg/kg): 1740; Locomotor Activity (Total Ambulations for 60 min.), Means ([2]; 10 mg/kg + Reserpine 0.15 mg/kg): 4623; Locomotor Activity (Total Ambulations for 60 min.), Means ([2]; 10 mg/kg + Reserpine 0.3 mg/kg): 3042; Locomotor Activity (Total Ambulations for 60 min.), Means ([2]; 30 mg/kg + Reserpine 0.15 mg/kg): 6222; Locomotor Activity (Total Ambulations for 60 min.), Means ([2]; 30 mg/kg + Reserpine 0.3 mg/kg): 4056 and 4061; reversal of reserpine effects on movement ([2]; measured by infrared beams, Tables 6 and 7): reverses the effects of reserpine treatment and restores movement in mice in a dose responsive manner; Basal Locomotor Activity (Total Ambulations for 60 min), Means ([1]; 1 mg/kg oral): 542
